# Test results published in patent US10660933B2, “Compositions and methods for inhibition of bacterial infections in human endocervix” (priority 2015, dated 2020).
# “Also recorded” adds a separate entry of the source. Ends that are not written are not given here.
# Tests used:
# [1] = test system: phosphorylated myosin light chain (pMLC); experiment: pMLC (active NMII) redistribution in Ng-inoculated polarized T84 cells (3D-CFM); type: cell-based, human; details: for junction:non-junction FIR of pMLC: polarized T84, Ng 6 h (Y27632: MS11ΔOpa); for junction:non-junction FIR of pMLC / apical:lateral FIR of pMLC: ML-7 10 μM, PIK 100 μM, Y27632 10 μM, 2APB 10 μM, BAPTA 50 μM; for accumulation of pMLC at Ng adherent sites / apical:lateral FIR of pMLC: polarized T84, Ng 6 h
# Description: Ng induce and Opa suppresses the redistribution of active non-muscle myosin II in polarized and endocervical epithelial cells. […] We examined the cellular distribution of active NMII after 6-h incubation with Ng, using antibody specific for phosphorylated myosin light chain (pMLC) and 3D-CFM. In uninfected polarized T84 (FIGS. 5A and 5C) and HEC-1-B cells (FIG. 10), pMLC was primarily localized at the apical junction. The polarized distribution of pMLC at the apical surface was quantified by the FIR of pMLC at the apical to the lateral (Apical:Lateral) membrane areas in individual cells using CFM images scanning across the apical and basolateral surfaces (FIGS. 5A and 5B). The polarized distribution pMLC at the apical junction was quantified by the FIR of pMLC at the junction to non-junction (Junction:Non-junction) areas of the apical region using CFM images scanning through the apical junction (FIGS. 5C and 5D). The apical inoculation of MS11Opa+ and MS11ΔOpa caused significant increases in apical:lateral FIR in both polarized T84 (FIGS. 5A and 5B) and HEC-1-B cells (FIG. 10), compared to the no Ng control. There were also significant increases in the junction:non-junction FIR in infected polarized T84 cells, compared to non-infected cells (FIGS. 5C and 5D). […] We further noticed that NMII at the apical surface appeared to accumulate at Ng adherent sites (FIG. 5A, middle panels, arrows).
# (§1) Immunofluorescence analysis of polarized epithelial cells. Cells were pretreated with or without NMII kinase inhibitors, Y27632 (10 μM, EMD Millipore), ML-7 (10 μM, EMD Millipore) and PIK (100 μM) or Ca2+ inhibitors, 2APB (10 μM, EMD Millipore) and BAPTA (50 μM, EMD Millipore) for 1 h, and incubated with Ng in the presence or absence of the inhibitors for 6 h. Cell were washed and fixed with 4% paraformaldehyde, permeabilized with 1% Triton X100, and stained with anti-E-cadherin (BD Bioscience), anti-pMLC (Cell Signaling Technology, Carlsbad, Calif.), anti-Ng antibodies, and DAPI for nuclei. Cells were analyzed by CFM. Images were acquired as Z-series of 0.37 μm slices, and 3D composites obtained. Epithelial exfoliation will be quantified using xz images as described for the tissue explants. The distribution of E-cadherin and pMLC was quantitatively analyzed by measuring the FIR at the apical junctional to the cytoplasmic area (from xy images) or at the apical to lateral surface area (from xz images) in individual cells.
# [2] = test system: Neisseria gonorrhoeae MS11; experiment: Ng adherence, invasion, and transmigration assays on polarized epithelial cells; type: cell-based; details: for transmigration of MS11ΔOpa across the polarized T84 monolayer / Ng invasion into polarized T84 cells (gentamicin resistance): 6 h; for transmigration of MS11ΔOpa across the polarized T84 monolayer: ML-7 10 μM, PIK 100 μM, 2APB 10 μM, Y27632 10 μM; for Ng adherence to polarized T84 cells / Ng invasion into polarized T84 cells (gentamicin resistance): MS11ΔOpa, with inhibitors; for Ng adherence to polarized T84 cells: 3 h
# Description: Ng adherence, invasion, and transmigration assays. The assays were performed as previously described. Briefly, polarized epithelial cells that were pretreated with or without the inhibitors for 1 h were incubated apically with Ng at 37° C. for 3 h for adherence and 6 h for invasion and transmigration assays with or without the inhibitors. Ng in the basolateral media were cultured and counted as transmigrated bacteria. Cells were washed and lysed to count adherent Ng. Cells were treated with gentamicin, washed, and lysed to count bacteria that were resistant to gentamicin treatment as invaded Ng.
# polarized T84 cells [3] = experiment: Ng-induced exfoliation of polarized T84 monolayers (3D-CFM); type: cell-based, human; details: 6 h, inhibitor 1 h before and during, ML-7 10 μM, PIK 100 μM, Y27632 10 μM; for exfoliation of MS11ΔOpa-infected epithelial cells from T84 monolayers: 2APB 10 μM
# Text: (§2) To quantify epithelial exfoliation, the number of Ng associated cells localized on the top of the epithelial monolayer (exfoliated) and the total number of Ng associated epithelial cells was counted by visual inspection in each randomly acquired image, to determine the percentage of exfoliated cells. To estimate the level of Ng penetration into the subepithelium, the number of non-exfoliated epithelial cells (in clearly visible epithelial monolayers) with basal Ng staining and the total number of Ng associated epithelial cells were visually counted to calculate the percentage of infected epithelial cells with Ng penetration into the basolateral side. To evaluate the disruption of the apical junction, the number of Ng associated epithelial cells that lost continuously apical staining of the junctional protein ZO1 and the total number of Ng associated epithelial cells were visually counted to calculate the percentage of Ng associated epithelial cells with apical junction disassembly. To quantify the redistribution of pMLC, the fluorescence intensity ratios (FIR) of pMLC staining at the apical to lateral in individual epithelial cells were determined using average FI as previously described.
# as §1
# polarized T84 cells [4] = experiment: Exfoliation of polarized T84 cells treated with inhibitors alone, without Ng; type: cell-based, human; details: no Ng inoculation, 6 h
# Description: Polarized T84 cells were treated with inhibitors for 6 h, fixed, stained to visualize the cell nuclei, and imaged by 3D-CFM. The percentage of cell moving above the epithelial monolayer (dash lines) was determined from three independent experiments. Scale bar, 5 μm. *p≤0.05.
# as §1
# cytoplasmic Ca2+ = experiment: Calcium imaging of Ng-inoculated polarized epithelial cells (FluoForte, Fluo-4); type: cell-based, human; details: MS11Opa+ and MS11ΔOpa-inoculated polarized epithelial cells, 4 h; 2APB 10 μM, BAPTA 50 μM
# Text: Ng inoculation induces Ca^2+-dependent redistribution of active NMII in polarized epithelial cells. A major upstream signaling molecule of MLCK is calmodulin that is activated by Ca^2+. To investigate if Ca^2+ is involved in Ng induced redistribution of active NMII, we determined if Ng inoculation would induce Ca^2+ flux in polarized epithelial cells. We used two Ca^2+ indicators, FluoForte (FIGS. 7A and 7B) and Fluo-4 (FIG. 11) to determine the cytoplasmic Ca^2+ level. Polarized T84 (FIGS. 7A and 7B, and FIG. 11A and FIG. 11B) and HEC-1-B (FIG. 11C and FIG. 11D) were incubated apically with MS11Opa+ or MS11ΔOpa for 4 h. The cells were then loaded with the fluorescent Ca^2+ indicator, and the cell membrane marked by the membrane dye CellMask. Cells were imaged using 3D-CFM (FIG. 7A, and FIGS. 11A and 11C). The mean fluorescence intensity (MFI) of the Ca^2+ dyes in individual cells was measured to estimate the cytoplasmic level of Ca^2+ (FIG. 7B, and FIGS. 11B and 11D). […]
# Calcium imaging. […] To quantify the intracellular Ca^2+ level, the cytoplasmic region of individual cells was manually selected based on the CellMask staining in randomly acquired confocal images, and the mean fluorescent intensity (MFI) of Fluoforte and Fluo-4 in the cytoplasmic region was measured using the NIH ImageJ software.
# [5] = test system: phosphorylated myosin light chain (pMLC); experiment: pMLC redistribution in Ng-inoculated human endocervical tissue explants; type: cell-based; details: MS11ΔOpa-inoculated endocervical tissue explants, 24 h
# Description: To explore the possibility of that Ng induced NMII redistribution occurs in vivo, we incubated human endocervical tissue explants with MS11ΔOpa for 24 h. Cryo-sections of the endocervical tissue were stained for pMLC, Ng and nuclei. In addition to its apical junction localization, pMLC was concentrated at the basal surface of the endocervical epithelial cells contacting with the basal membrane (FIG. 6A, upper panels). When incubated with MS11ΔOpa, there was a redistribution of pMLC from the basal to apical surface, resulting in a significant higher apical:lateral FIR in Ng inoculated tissue explants than that in no Ng control (FIG. 6), similar to what we observed in polarized T84 (FIGS. 5A and 5B) and HEC-1-B cells (FIG. 10). Furthermore, pMLC at the apical surface of the endocervical epithelial cells also concentrated at Ng adherent sites (FIG. 6A, second row, white arrows), but not at the membrane of cells neighboring exfoliating cells (FIG. 6A, second row, orange arrows). These observations confirm that Ng increase the relative amount of activated NMII at the apical surface of the endocervical epithelial cells in human tissue explants. […]
# (§3) Immunofluorescence analysis of human endocervical tissue explants. […] The tissue was fixed, embedded in gelatin, cryopreserved, sectioned crossing the apical and basolateral surfaces of the epithelium, stained for ZO1 (BD Bioscience), pMLC (Cell Signaling Technology, Beverly, Mass.), and Ng (51) by specific antibodies, and nuclei by DAPI (Life Technologies, Carlsbad, Calif.), and analyzed using CFM (Zeiss LSM 710, Carl Zeiss Microscopy LLC, Oberkochen, Germany). […]
# as §2, with “To quantify the redistribution of pMLC, the fluorescence intensity ratios (FIR) of pMLC staining at the apical to lateral in individual epithelial cells were determined using average FI as previously described.” left out
# [6] = test system: Neisseria gonorrhoeae MS11ΔOpa; experiment: Ng subepithelial penetration in human endocervical tissue explants (3D-CFM); type: cell-based
# Description: (§4) Human endocervical tissue explants. The tissue explants were cultured as previously described. Endocervical tissues were obtained from patients undergoing voluntary hysterectomies and received within 24 h post-surgery. Samples were cut into ˜2.5 cm (L)×0.6 cm (W)×0.3 cm (H) pieces, incubated in CMRL-1066 (GIBCO, Gaithersburg, Md.) plus antibiotics for 24 h, and then switched to antibiotic-free media for 24 h.
# Immunofluorescence analysis of human endocervical tissue explants. Individual endocervical tissue pieces were incubated with Ng at a MOI of ˜10 (based on the average number of endocervical epithelial cells in endocervical tissue pieces) in the presence or absence of the MLCK inhibitor ML-7 (10 μM, EMD Millipore) and PIK (100 μM) (54) on transwells for 24 h. Unassociated Ng were removed by extensive washes at 6 and 12 h. The tissue was fixed, embedded in gelatin, cryopreserved, sectioned crossing the apical and basolateral surfaces of the epithelium, stained for ZO1 (BD Bioscience), pMLC (Cell Signaling Technology, Beverly, Mass.), and Ng (51) by specific antibodies, and nuclei by DAPI (Life Technologies, Carlsbad, Calif.), and analyzed using CFM (Zeiss LSM 710, Carl Zeiss Microscopy LLC, Oberkochen, Germany). […]
# as §2, with “To evaluate the disruption of the apical junction, the number of Ng associated epithelial cells that lost continuously apical staining of the junctional protein ZO1 and the total number of Ng associated epithelial cells were visually counted to calculate the percentage of Ng associated epithelial cells with apical junction disassembly.” left out
# [7] = test system: human endocervical tissue explants; experiment: Ng-induced epithelial exfoliation of human endocervical tissue explants (3D-CFM); type: cell-based; details: MS11ΔOpa, 24 h; ML-7 10 μM, PIK 100 μM
# Description: as §4, §3
# To quantify epithelial exfoliation, the number of Ng associated cells localized on the top of the epithelial monolayer (exfoliated) and the total number of Ng associated epithelial cells was counted by visual inspection in each randomly acquired image, to determine the percentage of exfoliated cells. […] To quantify the redistribution of pMLC, the fluorescence intensity ratios (FIR) of pMLC staining at the apical to lateral in individual epithelial cells were determined using average FI as previously described.
# Neisseria gonorrhoeae = experiment: Ng growth; type: cell-based; details: FIG. 13
Compound,junction:non-junction FIR of pMLC [1],transmigration of MS11ΔOpa across the polarized T84 monolayer [2],Ng adherence to polarized T84 cells [2],Ng invasion into polarized T84 cells (gentamicin resistance) [2],exfoliation of MS11Opa+-infected epithelial cells from T84 monolayers (polarized T84 cells [3]; MS11Opa+),exfoliation of MS11ΔOpa-infected epithelial cells from T84 monolayers (polarized T84 cells [3]),epithelial exfoliation with inhibitors alone (polarized T84 cells [4]),accumulation of pMLC at Ng adherent sites [1],apical:lateral FIR of pMLC [1],MFI of the Ca2+ indicators (cytoplasmic Ca2+ level) (cytoplasmic Ca2+),pMLC accumulation at Ng adherent sites [5],"apical:lateral FIR of pMLC ([5]; ML-7 10 μM, PIK 100 μM)",Ng trans-migration across polarized human epithelial cells ([2]; FIG. 12C),Ng penetration into human endocervical epithelia ([6]; FIG. 12A-B),"percentage of epithelial cells with basally associated Ng ([6]; MS11ΔOpa, 24 h, ML-7 10 μM or PIK 100 μM, 27% without inhibitor)",epithelial exfoliation of human endocervical tissue explants [7],Ng growth (Neisseria gonorrhoeae)
C[C@@H](N)[C@H]1CC[C@H](C(=O)Nc2ccncc2)CC1 [Y27632],further increased,had no impact,had no impact,had no impact,did not significantly change the percentage of epithelial exfoliation,did not significantly change the percentage of epithelial exfoliation,,,,,,,,,,,
Cc1ccc2c(c1)C(=O)C1(O)CCN(c3ccccc3)C1=N2 (centres unmarked) [blebbistatin],,,,,,,increased epithelial exfoliation,,,,,,,,,,
O=C(O)CN(CC(=O)O)c1ccccc1OCCOc1ccccc1N(CC(=O)O)CC(=O)O [BAPTA],decreased,,,,,,,decreased,decreased,back to the basal level,,,,,,,
"PIK: peptide MLCK inhibitor comprising SEQ ID NO:1 (lys-arg-arg-tyr-lys-tyr-lys-lys-arg) with at least one D-amino acid; from U.S. Pat. No. 7,585,844 (KRRYKYKKR; also: at least one D-amino acid, places not given here)",significantly reduced,significantly reduced the transmigration,none of these inhibitors had any significant effect,none of these inhibitors had any significant effect,,reduced the exfoliation,did not affect epithelial exfoliation,significantly reduced,significantly reduced,,significantly reduced,significantly reduced,inhibits,inhibits Ng penetration; also recorded: robust inhibition,7.1%,decreased the epithelial exfoliation of human endocervical tissue explants to the basal level,suppresses Ng growth
